From patent US20240270699A1, “COMPOUNDS HAVING N-ARYLPYRIMIDIN-2-AMINE DERIVATIVES AS THERAPEUTIC AGENTS” (Lomond Therapeutics, Inc., priority 2021, published 2024) come the findings set out here.

One may read the pIC50 as the IC50 on a negative log10 scale, so that one unit is a factor of ten.

The target in one experiment is T1, recombinant HPK1 protein (Homo sapiens, UniProt Q92918).
T1 construct: purchased Promega V6398
T1 sequence (Q92918 1-346 limits assumed): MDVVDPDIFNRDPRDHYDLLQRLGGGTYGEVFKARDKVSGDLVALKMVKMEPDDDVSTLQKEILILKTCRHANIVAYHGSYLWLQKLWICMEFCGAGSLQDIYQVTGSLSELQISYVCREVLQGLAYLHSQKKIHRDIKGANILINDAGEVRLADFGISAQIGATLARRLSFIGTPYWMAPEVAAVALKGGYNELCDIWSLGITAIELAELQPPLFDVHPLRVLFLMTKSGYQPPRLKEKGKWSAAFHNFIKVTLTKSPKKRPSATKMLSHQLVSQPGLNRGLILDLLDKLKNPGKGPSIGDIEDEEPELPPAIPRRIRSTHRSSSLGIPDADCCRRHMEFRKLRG
Put plainly: Primary assay of HPK1 enzymatic activity inhibition (ADP-Glo luminescence). To be noted: recombinant HPK1, MBP substrate, 1 hour at room temperature. Format: biochemical.

The test system of another experiment is Jurkat cells. Briefly: IL-2 release Jurkat assay (anti-CD3/anti-CD28 stimulation, IL-2 ELISA). Format: cell-based, human. Conditions: activation with 400 ng/mL aCD3 + 400 ng/mL aCD28, 24 hours. (In general: An ELISA detects its analyte on a solid surface through an enzyme-linked reagent.)
[1] abbreviates: Table G: Jurkat, 1.0 μM of tested compounds.
The mark [2] stands for this setting: Table C: Jurkat, 6 μM of tested compounds, stimulated vehicle = A.
Setting [3] is: Table B: Jurkat, 1.5 μM of tested compounds.
Setting [4] is: Table F: Jurkat, 1.0 μM of tested compounds.

pIC50: −log10 of the molar value.

`CN(C)Cc1noc(-c2cnc(Nc3ccc4c(c3)CNC4=O)nc2N[C@H](CO)c2ccccc2)n1` [Compound 585, 5-[[5-[3-[(dimethylamino)methyl]-1,2,4-oxadiazol-5-yl]-4-[[(1S)-2-hydroxy-1-phenyl-ethyl]amino]pyrimidin-2-yl]amino]isoindolin-1-one]: the pIC50 on recombinant HPK1 protein was over 7.30. Also, in the experiment with Jurkat cells (setting [1]), the “IL-2, pg/mL stimulated” value was “D (150 pg/mL≤IL-2)”.

As to `CCOC(=O)c1cnc(Nc2ccc3c(c2)CCN(CC)C3=O)nc1N[C@H](CO)c1ccccc1` [Compound 218, Ethyl 2-[(2-ethyl-1-oxo-3,4-dihydroisoquinolin-6-yl)amino]-4-[[(1S)-2-hydroxy-1-phenyl-ethyl]amino]pyrimidine-5-carboxylate], at recombinant HPK1 protein, the pIC50 is 6.70 to 7.30. Further, in the experiment with Jurkat cells (setting [2]), the “IL-2, pg/mL stimulated” value is “D (150 pg/mL≤IL-2)”.

On to `Cc1cc(Nc2ncc(C(=O)NC(C)C)c(N[C@H](CO)c3ccccc3)n2)ccc1S(C)(=O)=O` [Compound 267, 4-{[(1S)-2-hydroxy-1-phenylethyl]amino}-2-{[3-methyl-4-(methylsulfonyl)phenyl]amino}-N-(propan-2-yl)pyrimidine-5-carboxamide], for which the pIC50 on recombinant HPK1 protein is 6.70 to 7.30. The “IL-2, pg/mL stimulated” value with Jurkat cells (setting [3]) is listed as “D (35.0 pg/mL≤IL-2)”.

Regarding `CCOC(=O)c1cnc(Nc2ccc3c(c2)CCNC3=O)nc1N[C@H](CO)c1cccc(OC)c1` [Compound 570, ethyl 4-[[(1S)-2-hydroxy-1-(3-methoxyphenyl)ethyl]amino]-2-[(1-oxo-3,4-dihydro-2H-isoquinolin-6-yl)amino]pyrimidine-5-carboxylate], the pIC50 at recombinant HPK1 protein was over 7.30. Besides, the “IL-2, pg/mL stimulated” value in the experiment with Jurkat cells (setting [3]) is “B (5.0 pg/mL≤IL-2<25.0 pg/mL)”.

As for `CCOC(=O)c1cnc(Nc2ccc(S(C)(=O)=O)cc2C)nc1N[C@H](CO)c1ccccc1` [Compound 167, Ethyl 4-{[(1S)-2-hydroxy-1-phenylethyl]amino}-2-{[2-methyl-4-(methylsulfonyl)phenyl]amino}pyrimidine-5-carboxylate], the pIC50 on recombinant HPK1 protein was 6.30 to 6.70. For the same compound, the “IL-2, pg/mL stimulated” value with Jurkat cells (setting [2]) is given as “B (50 pg/mL≤IL-2<100 pg/mL)”.

`CCOC(=O)c1cnc(Nc2ccc(S(C)(=O)=O)c(C)c2)nc1N[C@H](CO)c1ccccc1` [Compound 166, Ethyl 4-{[(1S)-2-hydroxy-1-phenylethyl]amino}-2-{[3-methyl-4-(methylsulfonyl)phenyl]amino}pyrimidine-5-carboxylate]: the pIC50 at recombinant HPK1 protein was over 7.30. For the same compound, the “IL-2, pg/mL stimulated” value in the experiment on Jurkat cells (setting [3]) is on record as “C (25.0 pg/mL≤IL-2<35.0 pg/mL)”.

As to `Cc1noc(-c2cnc(Nc3ccc4c(c3)CCN(COCC[Si](C)(C)C)C4=O)nc2N[C@H](CO)c2ccccc2)n1` [Compound 582, 6-[[4-[[(1S)-2-hydroxy-1-phenyl-ethyl]amino]-5-(3-methyl-1,2,4-oxadiazol-5-yl)pyrimidin-2-yl]amino]-2-(2-trimethylsilylethoxymethyl)-3,4-dihydroisoquinolin-1-one], the pIC50 on recombinant HPK1 protein was 6.70 to 7.30. Besides, in the experiment with Jurkat cells (setting [4]), the “IL-2, pg/mL stimulated” value is listed as “B (50 pg/mL≤IL-2<100 pg/mL)”.

Consider `CCOC(=O)c1cnc(Nc2ccc(F)c(-c3ccccc3)c2)nc1N[C@H](CO)c1ccccc1` [Compound 195, Ethyl 2-[(6-fluorobiphenyl-3-yl)amino]-4-{[(1S)-2-hydroxy-1-phenylethyl]amino}pyrimidine-5-carboxylate], for which the pIC50 at recombinant HPK1 protein is 6.30 to 6.70. For the same compound, in the experiment with Jurkat cells (setting [3]), the “IL-2, pg/mL stimulated” value is given as “C (25.0 pg/mL≤IL-2<35.0 pg/mL)”.

In the case of `O=C1NCc2cc(Nc3ncc(-c4nc(CN5CCCC5)no4)c(N[C@H](CO)c4ccccc4)n3)ccc21` [Compound 587, 5-[[4-[[(1S)-2-hydroxy-1-phenyl-ethyl]amino]-5-[3-(pyrrolidin-1-ylmethyl)-1,2,4-oxadiazol-5-yl]pyrimidin-2-yl]amino]isoindolin-1-one], the negative logarithm of the IC50 (pIC50) at recombinant HPK1 protein was over 7.30. For the same compound, in the experiment with Jurkat cells (setting [1]), the “IL-2, pg/mL stimulated” value was “D (150 pg/mL≤IL-2)”.

Regarding `CCNC(=O)c1cnc(Nc2ccc3c(c2)CCN(C)C3=O)nc1N[C@H](CO)c1ccccc1` [Compound 119, N-ethyl-4-{[(1S)-2-hydroxy-1-phenylethyl]amino}-2-[(2-methyl-1-oxo-1,2,3,4-tetrahydroisoquinolin-6-yl)amino]pyrimidine-5-carboxamide], the pIC50 at recombinant HPK1 protein was over 7.30. The “IL-2, pg/mL stimulated” value in the experiment with Jurkat cells (setting [3]) was “D (35.0 pg/mL≤IL-2)”.

In the case of `CCNC(=O)c1cnc(Nc2ccc(F)c(-c3ccccc3)c2)nc1N[C@H](CO)c1ccccc1` [Compound 189, N-ethyl-2-[(6-fluorobiphenyl-3-yl)amino]-4-{[(1S)-2-hydroxy-1-phenylethyl]amino}pyrimidine-5-carboxamide], on recombinant HPK1 protein, the pIC50 was 6.30 to 6.70. Also, in the experiment with Jurkat cells (setting [3]), the “IL-2, pg/mL stimulated” value is given as “C (25.0 pg/mL≤IL-2<35.0 pg/mL)”.

Turning to `Cc1cc(Nc2ncc(C(=O)N(C)C)c(N[C@H](CO)c3ccccc3)n2)ccc1S(C)(=O)=O` [Compound 157, 4-[[(1S)-2-hydroxy-1-phenyl-ethyl]amino]-N,N-dimethyl-2-(3-methyl-4-methylsulfonyl-anilino)pyrimidine-5-carboxamide], on recombinant HPK1 protein, the pIC50 is 6.30 to 6.70. In the experiment with Jurkat cells (setting [2]), the “IL-2, pg/mL stimulated” value is “C (100 pg/mL≤IL-2<150 pg/mL)”.

Turning to `Cn1cc(-c2cnc(Nc3ccc4c(c3)CCNC4=O)nc2N[C@H](CO)c2ccccc2)cn1` [Compound 584, 6-[[4-[[(1S)-2-hydroxy-1-phenyl-ethyl]amino]-5-(1-methylpyrazol-4-yl)pyrimidin-2-yl]amino]-3,4-dihydro-2H-isoquinolin-1-one], on recombinant HPK1 protein, the pIC50 is over 7.30. The “IL-2, pg/mL stimulated” value in the experiment with Jurkat cells (setting [4]) was “A (IL-2<50 pg/mL)”.

Turning to `Cc1noc(-c2cnc(Nc3ccc4c(c3)CC(C)(C)NC4=O)nc2N[C@H](CO)c2ccccc2)n1` [Compound 578, 6-[[4-[[(1S)-2-hydroxy-1-phenyl-ethyl]amino]-5-(3-methyl-1,2,4-oxadiazol-5-yl)pyrimidin-2-yl]amino]-3,3-dimethyl-2,4-dihydroisoquinolin-1-one], the pIC50 at recombinant HPK1 protein was over 7.30. Further, in the experiment with Jurkat cells (setting [1]), the “IL-2, pg/mL stimulated” value is “C (100 pg/mL≤IL-2<150 pg/mL)”.

As for `COCCNC(=O)c1cnc(Nc2ccc(S(C)(=O)=O)c(C)c2)nc1N[C@H](CO)c1ccccc1` [Compound 372, 4-[[(1S)-2-hydroxy-1-phenyl-ethyl]amino]-N-(2-methoxyethyl)-2-(3-methyl-4-methylsulfonyl-anilino)pyrimidine-5-carboxamide], the pIC50 on recombinant HPK1 protein was 6.30 to 6.70. Moreover, the “IL-2, pg/mL stimulated” value with Jurkat cells (setting [2]) is on record as “C (100 pg/mL≤IL-2<150 pg/mL)”.

As to `CCOC(=O)c1cnc(Nc2ccc(S(C)(=O)=O)c(OC)c2)nc1N[C@H](CO)c1ccccc1` [Compound 300, Ethyl 4-{[(1S)-2-hydroxy-1-phenylethyl]amino}-2-{[3-methoxy-4-(methylsulfonyl)phenyl]amino}pyrimidine-5-carboxylate], on recombinant HPK1 protein, the pIC50 was 6.70 to 7.30. Moreover, the “IL-2, pg/mL stimulated” value in the experiment with Jurkat cells (setting [2]) is recorded as “A (IL-2<50 pg/mL)”.

In the case of `CCOC(=O)c1cnc(Nc2ccc(C(N)=O)c(Cl)c2)nc1N[C@H](CO)c1ccccc1` [Compound 559, Ethyl 2-(4-carbamoyl-3-chloro-anilino)-4-[[(1S)-2-hydroxy-1-phenyl-ethyl]amino]pyrimidine-5-carboxylate], the pIC50 on recombinant HPK1 protein is over 7.30. In addition, in the experiment with Jurkat cells (Table D: Jurkat, 6 μM of tested compounds, stimulated vehicle = B), the “IL-2, pg/mL stimulated” value is “D (150 pg/mL≤IL-2)”.

Take `O=C(NCC(F)(F)F)c1cnc(Nc2ccc(F)c(-c3ccccc3)c2)nc1N[C@H](CO)c1ccccc1` [Compound 499, 2-[(6-fluorobiphenyl-3-yl)amino]-4-{[(1S)-2-hydroxy-1-phenylethyl]-amino}-N-(2,2,2-trifluoroethyl)pyrimidine-5-carboxamide]: on recombinant HPK1 protein, the pIC50 was 6.30 to 6.70. In addition, the “IL-2, pg/mL stimulated” value with Jurkat cells (setting [3]) is reported as “C (25.0 pg/mL≤IL-2<35.0 pg/mL)”.
